Values quoted from earlier work in article PMC4168267 (Scientific Reports, 2014).

What was measured:
chymotrypsin = assay: chymotrypsin
Gαi1-GDP = Gαi1-GDP (Homo sapiens, UniProt P63096); settings: R6A reference peptide of the competition assay
Gαi1-GDP, sequence (P63096 whole entry): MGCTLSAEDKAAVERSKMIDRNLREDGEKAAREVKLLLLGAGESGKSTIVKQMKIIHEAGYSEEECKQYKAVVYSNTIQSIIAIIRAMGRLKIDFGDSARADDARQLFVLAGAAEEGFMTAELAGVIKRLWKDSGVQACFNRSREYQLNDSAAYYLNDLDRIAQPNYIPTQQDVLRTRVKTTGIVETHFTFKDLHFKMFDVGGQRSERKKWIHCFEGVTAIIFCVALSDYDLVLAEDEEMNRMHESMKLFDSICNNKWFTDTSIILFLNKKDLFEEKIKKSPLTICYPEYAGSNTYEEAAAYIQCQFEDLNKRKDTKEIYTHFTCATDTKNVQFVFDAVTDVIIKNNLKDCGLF

Row | Sequence | cleaved bond (chymotrypsin) | not cleaved (chymotrypsin) | Kd (Gαi1-GDP)
1 | MITWYEFVAGTK | Y5-E, major | intact | 
2 | MSQTKRLDDQLYWWEYL [Peptide R6A] |  |  | 60 nM
